Square brackets hold non-standard residues; d marks the D form. Peptide text beside a SMILES is read from it. * marks the point of attachment. pGlu = O=C1CC[C@@H](C(=O)O)N1; PhAc = O=C(Cc1ccccc1)*; Boc = CC(C)(C)OC(=O)*; Propionyl = CCC(=O)*; Bz = O=C(c1ccccc1)*
Test system: spontaneously hypertensive rates (SHR rats)
Assay: Measurement of change in blood pressure (systolic, indirect, conscious rats) after one oral dose
Type: in vivo, rat
Conditions: for Systolic Blood Pressure, Lowest Value: after administration; for Δ Blood Pressure (systolic): lowest value minus value before administration
Description: The antihypertensive activities of the amino acid derivatives as prepared above were determined.
As subject animals, there were used 5 spontaneously hypertensive rates (SHR rats) which had been sufficiently trained and confirmed to be hypertensive (mode, the body weight of 400 g) per a sample.
As an instrument for measuring the blood pressure there was used Programmed Electro-Sphygmomanometer PE-300 (Narco Co., U.S.A.), and the blood pressure was indirectly measured on conscious rats.
An aqueous solution of a sample (0.05 m mole/kg) was once force-fed into the stomach by means of a […] probe. As a control, the water as deionized was fed to the same animals as above.

[1] = second table (Examples 25-43), before administration
[2] = SHR rats, single force-feeding into the stomach, 0.05 m mole/kg
[3] = SHR rats, 5 per sample, before single force-feeding into the stomach of 0.05 m mole/kg aqueous solution

| Molecule | Hrs. After Admin. (of lowest systolic blood pressure value) (second table (Examples 25-43)) | Systolic Blood Pressure, Lowest Value (second table (Examples 25-43)) | Systolic Blood Pressure, Value Before Administration [1] | Δ Blood Pressure (systolic) (second table (Examples 25-43)) | Systolic Blood Pressure, Lowest value after administration [2] | Δ Blood Pressure (systolic) [2] | Systolic Blood Pressure, Value Before Administration [3] | Hours after administration (of lowest systolic blood pressure value) [2] |
| --- | --- | --- | --- | --- | --- | --- | --- | --- |
| CCOC(=O)N[C@@H](CCSC)C(=O)N1CCC[C@H]1C(=O)N1CCC[C@H]1C(=O)[O-].[Na+] [Example 36, N--Ethoxycarbonyl-L-methionyl-L-prolyl-L proline sodium salt] | 8 h | 206 | 223 | -17 |  |  |  |  |
| O=C(NCC(=O)N1CCC[C@H]1C(=O)N1CCC[C@H]1C(=O)O)c1ccccc1 [Example 27, N--benzoyl-glycyl-L-prolyl-L-proline] (Bz-Gly-Pro-Pro-OH) | 8 h | 209 | 232 | -23 |  |  |  |  |
| CCS(=O)(=O)N[C@@H](CO)C(=O)N1CCC[C@H]1C(=O)N1CCC[C@H]1C(=O)[O-].[Na+] [Example 42, N--ethane sulfonyl-L-seryl-L-prolyl-L-proline sodium salt] | 24 h | 200 | 220 | -20 |  |  |  |  |
| CCS(=O)(=O)N[C@@H](CCC(=O)O)C(=O)N1CCC[C@H]1C(=O)N1CCC[C@H]1C(=O)O [Example 40, N--ethane sulfonyl-L-glutamyl-L-prolyl-L proline] | 8 h | 202 | 220 | -18 |  |  |  |  |
| C[C@H](NC(=O)OC(C)(C)C)C(=O)N1CCC[C@H]1C(=O)N1CCC[C@H]1C(=O)O [Example 16, N-t-butyloxycarbonyl-L-alanyl-L-prolyl-L-proline] (Boc-Ala-Pro-Pro-OH) |  |  |  |  | 173 mm Hg | -21 mm Hg |  |  |
| N-benzylsulfonyl-L-alanyl-L-prolyl-L-proline L-arginine salt [Example 11] |  |  |  |  | 174 mm Hg | -28 mm Hg | 202 mm Hg | 8 h |
| CCC(=O)N[C@@H](C)C(=O)N1CCC[C@H]1C(=O)N1CCC[C@H]1C(=O)O [Example 4, N-propionyl-L-alanyl-L-prolyl-L-proline] (Propionyl-Ala-Pro-Pro-OH) |  |  |  |  | 173 mm Hg | -24 mm Hg |  |  |
| CCOC(=O)N[C@@H](CCCNC(=N)N)C(=O)N1CCC[C@H]1C(=O)N1CCC[C@H]1C(=O)O [Example 34, N--ethoxycarbonyl-L-arginyl-L-prolyl-L-proline] | 4 h | 192 | 203 | -11 |  |  |  |  |
| C[C@H](NC(=O)c1ccco1)C(=O)N1CCC[C@H]1C(=O)N1CCC[C@H]1C(=O)O [Example 7, N-(2-furoyl)-L-alanyl-L-prolyl-L-proline] |  |  |  |  | 177 mm Hg | -28 mm Hg |  |  |
| CCOC(=O)N[C@H](C(=O)N1CCC[C@H]1C(=O)N1CCC[C@H]1C(=O)O)[C@@H](C)CC.[Na] [Example 30, N--ethoxycarbonyl-L-isoleucyl-L-prolyl-L-proline sodium salt] | 4 h | 208 | 224 | -16 |  |  |  |  |
| N-phenylcarbamoyl-L-alanyl-L-prolyl-L-proline L-arginine salt [Example 17] |  |  |  |  | 203 mm Hg | -15 mm Hg | 218 mm Hg | 24 h |
| C[C@@H](C(=O)N1CCC[C@H]1C(=O)N1CCC[C@H]1C(=O)O)N1C(=O)c2ccccc2C1=O [Example 8, N-phthaloyl-L-alanyl-L prolyl-L-proline] |  |  |  |  | 207 mm Hg | -18 mm Hg | 225 mm Hg | 4 h |
| CCS(=O)(=O)N[C@@H](C)C(=O)N1CCC[C@H]1C(=O)N1CCC[C@H]1C(=O)O [Example 12, N-ethanesulfonyl-L-alanyl-L prolyl-L-proline] |  |  |  |  | 159 mm Hg | -45 mm Hg | 204 mm Hg | 24 h |
| CCOC(=O)N[C@@H](Cc1ccccc1)C(=O)N1CCC[C@H]1C(=O)N1CCC[C@H]1C(=O)O.[Na] [Example 31, N--ethoxycarbonyl-L-phenylalanyl-L-prolyl-L-proline sodium salt] | 24 h | 199 | 216 | -17 |  |  |  |  |
| CC[C@H](C)[C@H](NS(=O)(=O)CC)C(=O)N1CCC[C@H]1C(=O)N1CCC[C@H]1C(=O)O.[Na] [Example 37, N--ethanesulphonyl-L-isoleucyl-L-prolyl-proline sodium salt] | 8 h | 194 | 218 | -22 |  |  |  |  |
| C[C@H](NC(=O)[C@@H]1CCC(=O)N1)C(=O)N1CCC[C@H]1C(=O)N1CCC[C@H]1C(=O)O [Example 21, L-pyroglutamyl-L-alanyl-L-prolyl-L-proline] ([pGlu]APP-OH) |  |  |  |  | 190 mm Hg | -29 mm Hg |  |  |
| O=C(O)[C@@H]1CCCN1C(=O)[C@@H]1CCCN1C(=O)[C@H](CO)NCc1ccccc1 [Example 29, N--benzyl-L-seryl-L-prolyl-L-proline] | 8 h | 192 | 214 | -22 |  |  |  |  |
| C[C@H](NC(=O)Cc1ccccc1)C(=O)N1CCC[C@H]1C(=O)N1CCC[C@H]1C(=O)O [Example 14, N-phenylacetyl-L-alanyl-L-prolyl-L-proline] (PhAc-Ala-Pro-Pro-OH) |  |  |  |  | 175 mm Hg | -24 mm Hg |  |  |
| C[C@H](NC(=O)c1ccccc1)C(=O)N1CCC[C@H]1C(=O)N1CCC[C@H]1C(=O)O [Example 13, N-benzoyl-L-alanyl-L-prolyl-L-proline] (Bz-Ala-Pro-Pro-OH) |  |  |  |  | 177 mm Hg | -43 mm Hg |  |  |
| O=C(O)CC[C@H](NC(=O)c1ccccc1)C(=O)N1CCC[C@H]1C(=O)N1CCC[C@H]1C(=O)O [Example 28, N--benzoyl-L-glutamyl-L-prolyl-L-proline] (Bz-Glu-Pro-Pro-OH) | 8 h | 196 | 235 | -39 |  |  |  |  |
| CCS(=O)(=O)N[C@@H](Cc1ccccc1)C(=O)N1CCC[C@H]1C(=O)N1CCC[C@H]1C(=O)O [Example 38, N--ethanesulfonyl-L-phenylalanyl-L-prolyl-L-proline] | 8 h | 201 | 235 | -34 |  |  |  |  |
| C[C@H](NC(=O)c1ccccn1)C(=O)N1CCC[C@H]1C(=O)N1CCC[C@H]1C(=O)O [Example 5, N-picolinoyl-L-alanyl-L-prolyl-L-proline] |  |  |  |  | 175 mm Hg | -22 mm Hg |  |  |
| CCOC(=O)N[C@@H](CCC(=O)O)C(=O)N1CCC[C@H]1C(=O)O [Example 33, N--ethoxycarbonyl-L-glutamyl-L-proline] | 8 h | 202 | 220 | -18 |  |  |  |  |
| CCOC(=O)N[C@@H](CO)C(=O)N1CCC[C@H]1C(=O)N1CCC[C@H]1C(=O)O [Example 35, N--Ethoxycarbonyl-L-seryl-L-prolyl-L-proline] | 8 h | 195 | 220 | -25 |  |  |  |  |
| CCS(=O)(=O)N[C@@H](CCSC)C(=O)N1CCC[C@H]1C(=O)N1CCC[C@H]1C(=O)O [Example 43, N--ethane sulfonyl-L-methionyl-L-prolyl-L-proline] | 8 h | 198 | 229 | -31 |  |  |  |  |
| CC(=O)N[C@@H](C)C(=O)N1CCC[C@H]1C(=O)N1CCC[C@H]1C(=O)O [Example 3, N-acetyl-L-alanyl-L-prolyl-L-proline] (Ac-Ala-Pro-Pro-OH) |  |  |  |  | 160 mm Hg | -41 mm Hg |  |  |
| N-(3-phenylpropionyl)-L-alanyl-L-prolyl-L-proline L-arginine salt [Example 2] |  |  |  |  | 154 mm Hg | -36 mm Hg | 190 mm Hg | 24 h |
| CCOC(=O)N[C@@H](C)C(=O)N1CCC[C@H]1C(=O)N1CCC[C@H]1C(=O)O [Example 1, N-ethoxycarbonyl-L-alanyl-L-prolyl-L-proline] |  |  |  |  | 155 mm Hg | -38 mm Hg |  |  |
